Like-named read-outs stand apart in the source and are kept apart here.
Legend:
[1] = system: clinically isolated HIV strain r13363 harboring several mutations; assay: Cellular anti-viral assay in HIV-infected MT4-LTR-EGFP cells (GFP reporter), clinically isolated mutant strain; type: cell-based
Procedure: Because of the increasing emergence of drug resistant HIV strains, the present compound was also tested for its potency against a clinically isolated HIV strain harboring several mutations. These mutations are associated with resistance to protease inhibitors and result in viruses that show various degrees of phenotypic cross-resistance to the currently commercially available drugs such as for instance saquinavir, ritonavir, nelfinavir, indinavir and amprenavir. The viral strain tested R13363 contains mutations as indicated below.
(§1) The cellular assay was performed according to the following procedure.
(§2) HIV- or mock-infected MT4-LTR-EGFP cells were incubated for three days in the presence of various concentrations of the compound according to the invention. As reference compounds APV, IDV, RTV, NFV, TPV and LPV were used. Upon infection, the viral tat protein activates the GFP reporter. At the end of the incubation period, the GFP signal was measured. In the virus control samples (in the absence of any inhibitor) the maximal fluorescent signal was obtained. The inhibitory activity of the compounds were monitored on the virus-infected cells and were expressed as EC50. These values represent the amount of the compound required to protect 50% of the cells from virus infection.

[2] = system: wild type laboratory HIV strain (WT IIIB-2-001); assay: Cellular anti-viral assay in HIV-infected MT4-LTR-EGFP cells (GFP reporter), wild type strain; type: cell-based
Procedure: The compound having structural formula (III) was tested in a cellular assay using the MT4-LTR-EGFP cells for anti-viral activity.
as §1, §2

[3] = Human immunodeficiency virus 1, read-out: HIV-AVE-MT4LTREGFP-r13363 pEC50 (converted)
[4] = Human immunodeficiency virus 1, IIIB, read-out: HIV-AVE-MT4LTREGFP-IIIB pEC50 (converted)

SMILES	EC50 [1, 3] [nM]	EC50 [2, 4] [nM]	also measured
CC(C)CN(C[C@@H](O)[C@H](Cc1ccccc1)NC(=O)O[C@H]1CCOC1)S(=O)(=O)c1ccc(N)cc1 [APV, amprenavir]	10000	50.1	–
CC(C)(C)NC(=O)[C@@H]1CN(Cc2cccnc2)CCN1C[C@@H](O)C[C@@H](Cc1ccccc1)C(=O)N[C@H]1c2ccccc2C[C@H]1O [IDV, indinavir]	398	39.8	–
Cc1cccc(C)c1OCC(=O)N[C@@H](Cc1ccccc1)[C@@H](O)C[C@H](Cc1ccccc1)NC(=O)[C@H](C(C)C)N1CCCNC1=O [LPV, lopinavir]	631	12.6	–
Cc1c(O)cccc1C(=O)N[C@@H](CSc1ccccc1)[C@H](O)CN1C[C@H]2CCCC[C@H]2C[C@H]1C(=O)NC(C)(C)C [NFV, nelfinavir]	1580	63.1	–
CC(C)c1nc(CN(C)C(=O)N[C@H](C(=O)N[C@@H](Cc2ccccc2)C[C@H](O)[C@H](Cc2ccccc2)NC(=O)OCc2cncs2)C(C)C)cs1 [RTV, ritonavir]	10000	63.1	–
CCC[C@@]1(CCc2ccccc2)CC(O)=C([C@H](CC)c2cccc(NS(=O)(=O)c3ccc(C(F)(F)F)cn3)c2)C(=O)O1 [TPV]	–	–	HIV-AVE-MT4LTREGFP-r13363 pEC50 ([1]; reference compounds, clinically isolated HIV strain r13363, MT4-LTR-EGFP cells): 6.3; HIV-AVE-MT4LTREGFP-IIIB pEC50 ([2]; reference compounds, wild type (IIIB), MT4-LTR-EGFP cells): 6.3 =
COC(=O)N[C@H](C(=O)NCCCC[C@@H](CO)N(CC(C)C)S(=O)(=O)c1ccc(CN)cc1)C(c1ccccc1)c1ccccc1 [formula (III), (S)—(S)-(1-{5-[(4-Aminomethyl-benzenesulfonyl)-isobutyl-amino]-6-hydroxy-hexylcarbamoyl}-2,2-diphenyl-ethyl)-carbamic acid methyl ester]	–	–	EC50 ([1]; Human immunodeficiency virus 1, 72 h, read-out: pEC50-r13363 (converted)): 31.6 nM; EC50 ([2]; Human immunodeficiency virus 1, 72 h, wild type (IIIB), MT4-LTR-EGFP cells, three days incubation, read-out: pEC50—IIIB (converted)): 31.6 nM; anti-HIV activity against wild type laboratory HIV strain ([2]; MT4-LTR-EGFP cells, WT IIIB-2-001): potent anti-HIV activity
